Measurements published in paper PMC12636028, “Rate-Tunable, Metal-Mediated Amide Bond Cleavage for the Controlled Release of Pharmaceuticals” (Journal of the American Chemical Society, 2025).
Like-named read-outs stand apart in the source and are kept apart here. One block for each substance: values may come before it.

Experiments:
[1] = cleavage assay of cold (natural metal) model tripeptide complexes, monitored by HPLC; type: physicochemical; conditions: for kobs: Ga complex, pseudo first-order
Text: Following our previous work focused on N, O acyl shift compatible chelate conjugates, we originally sought to accelerate amide bond cleavage by N-methylation, to enhance the peptide’s leaving group character. We initiated the study by synthesis of a model tripeptide sequence which is capped at the N-terminus by the aza-macrocyclic 1,4,7-triazacyclononane-1,4,7-triacetic acid (NOTA) chelator previously identified as compatible with MMAAC. To this end, tripeptides with the sequence NO2A-X-G-W-NH2 (where X represents the variable complex adjacent amino acid) were constructed. Tryptophan (W) was incorporated as a spectroscopic handle for HPLC monitoring due to its characteristic absorbance at 280 nm, while glycine (G) was included as a short spacer amino acid to minimize the steric influence of W on the metal chelate. Subsequently, chelation with Ga^3+ yielded the corresponding model tripeptide metal complex, [Ga(NO2A)]^+-X-G-W-NH2. The Ga^3+ ion was selected as the gold-standard metal ion since it effectively triggered bond cleavage in the Ser model tripeptide in prior studies, but also formed a thermodynamically and kinetically inert, in vivo compatible metal complex. Following successful complexation and purification, the pH and reaction temperature of the metal complex solution were adjusted to pH 7.4 and 80 °C to initiate cleavage at a readily observable rate (Figure A). Reaction progress was monitored and quantified using high-performance liquid chromatography and mass spectrometry (HPLC-MS, Figure B,C). In the absence of a metal ion, all model tripeptides remained intact at all conditions and temperatures tested (Figures S113–S121). […] In the liquid chromatogram, a second peak with a longer retention time, with the same mass as the reactant, was observed. Previously, we hypothesized that this peak correlated to an intramolecular rearrangement prior to the subsequent amide bond cleavage as part of the N, O-acyl shift reaction.
3 Complex synthesis and characterization
3.1 General Complexation Protocol and Cleavage Assay Procedure
A 5 mg aliquot of the compound, 10-25, was dissolved in 500 μL of room-temperature distilled water.
Two equivalents of the natGa3+salt were added to the solution, which was left to react for 1 hour under room temperature. Full complexation was confirmed by LCMS. The complex was then purified via Sep-Pak C18 short cartridge. The concentration was determined by ICP-OES. The complexes were further characterized via HPLC and HR-ESI-MS.
Cleavage of the cold model tripeptide complexes (0.75 mM, determined by ICP-OES) was observed under 80 °C and pH 7.4. Aqueous buffer solutions were prepared using 10 mM NaOAc (pH 4.5), 10 mM […]
The complex was formed in pH 4.5 10 mM NaOAc buffer under room temperature. An aliquot of the complex was placed in an aqueous solution of the desired pH and incubated for 24 hours at 80 °C. The reaction was monitored via analytical HPLC (Method A). […]
natGallium 2,2'-(7-(2-(benzylamino)-2-oxoethyl)-1,4,7-triazonane-1,4-diyl)diacetic acid, Ga(26). […]
The concentration of Ga(NO3)3 was determined by ICP-OES. The pH of the solution was adjusted to pH = 5 by adding 4 equivalents of 1 M KOH solution. […]
natGallium 2,2'-(7-(2-(benzyl(methyl)amino)-2-oxoethyl)-1,4,7-triazonane-1,4-diyl)diacetic acid, [Ga(27)]ClO4. A 15 mg aliquot of compound 27 was dissolved in 500 μL of room temperature distilled […]
water. […]

[2] = type: in vitro ADME; conditions: mouse, plasma
Text: (§1) The cleavage of the radiolabeled conjugates was monitored
(§2) tube. […] After centrifugation at […]

[3] = type: physicochemical; conditions: buffer, pH 7.4
Text: as §1, §2

[4] = for half-life of model tripeptide: buffer, pH 7.4; for autolytic release of [67Ga]Ga(NOTA): 67Ga-radiolabeled
Procedure: 4.1 Radiolabeling with 68Ga and Cleavage Assay in HEPES buffer
68Ga-chloride was obtained from the University of Wisconsin Radiopharmaceutical Production Facility, at
an average specific activity of 20 mCi/mL. For radio-labeling of model tripeptides and Ahx-KuE peptide
conjugates, a 35 μL aliquot containing 0.7 mCi of 68GaCl3 was added to the ligand (10 nmol, 265 µL) in
0.067 M of sodium acetate (NaOAc) buffer pH 4.5. Radiolabeling was completed after 15 minutes at
room temperature. The pH of the solution was then adjusted to 7.4 by pH 7.4 1 M HEPES buffer.
radiolabeled conjugates were further characterized with radio-HPLC; if the radiochemical yield was
<98%, a chromatographic purification of the crude radiolabeling mixture was performed. The cleavage of
the radiolabeled conjugates was monitored via radio-HPLC at 80 °C and pH 7.4.
67Ga-citrate was purchased from Jubilant Radiopharma at an average specific activity of 140.0 MBq/mL.
The 67Ga-citrate solution was first converted to 67GaCl using an established solid phase extraction
protocol. The resulting converted 67GaCl3 fraction with the specific activity of 962 MBq/mL was used for
radiolabeling. For radio-labeling of model tripeptides and Ahx-KuE peptide conjugates, a 25 μL aliquot
containing 0.45 mCi of 67GaCl3 was added to the ligand (10 nmol, 110 µL) in 0.15 M of sodium acetate
(NaOAc) buffer pH 4.5. Radiolabeling was completed after 10 minutes at room temperature. The pH of
the solution was then adjusted to 7.4 by adding pH 7.4 1 M HEPES buffer (final concentration: 0.25 M).
The radiolabeled conjugates were further characterized with radio-HPLC; if the radiochemical yield was
the radiolabeled conjugates was monitored via radio-HPLC at 37 °C and 80 °C at pH 7.4.
For radio-labeling of model tripeptides and Ahx-KuE peptide conjugates, a 25 μL aliquot containing 0.3
mCi of 67GaCl3 was added to the ligand (10 nmol, 110 µL) in 0.15 M of sodium acetate (NaOAc) buffer
pH 4.5. Radiolabeling was completed after 10 minutes at room temperature. The radiolabeled complexes
were further characterized by radio-HPLC. The pH of the solution was then adjusted to 7.4 by adding pH
7.4 1M HEPES buffer. Into the buffered mixture was added equal volume of mouse plasma (buffered
radiolabeled complex : mouse plasma 1:1). The cleavage of the radiolabeled conjugates was monitored
via radio-HPLC at 37 °C. At each time point, an aliquot of 20 – 40 µL sample was removed from the
tube. Plasma protein was precipitated by adding 20 – 40 µL of cold acetonitrile. After centrifugation at
4000 rpm for 10 minutes, the supernatant was collected and diluted in 40 – 70 µL H2O for radio-HPLC

[5] = cleavage assays in H2O and D2O for kinetic isotopic effect; type: physicochemical; conditions: Ga complex 0.75 mM, pH 7.4 HEPES, 80 °C
Text: Therefore, we conducted additional Kinetic isotopic effect (KIE) measurements for Met (15) and ^NMeMet (18) conjugates, which were chosen to avoid alternative reaction mechanisms. Our experiments determined KIE values (1.46 for Met, 2.81 for ^NMeMet) that imply a secondary KIE, where the proton transfer is not rate-limiting (Figures S262–S265). […] Reaction rates in phosphate buffered saline (PBS) were accelerated, motivating investigation of biologically relevant systems.
5.3 Cleavage assays in H2O and D2O for kinetic isotopic effect measurement Cold cleavage assays of [Ga(15)]+ were conducted in H2O and D2O to investigate the kinetic isotopic effects. In an Eppendorf tube, Ga complexes (0.75 mM) were initially prepared in H2O according to general complexation protocol Section 3.1. The solvent was lyophilized, and the complexes were redissolved in D2O. To minimize residual H2O, the D2O was lyophilized and redissolved three times. The Ga complexes were then redissolved in D2O to a final concentration of 0.75 mM. The solution was buffered to pH 7.4 by adding pH 7.4 HEPES buffer. Cleavage reactions were performed at 80 °C and monitored by analytical HPLC.
Figure S262. Schematic description of preparation and direct complexation procedure of [natGa(15)]+.
Analytical HPLC chromatograms showing autolytic release of the product, natGa-NOTA, in H2O. The kinetics data was fit using Yt = -kt+Y0 in Excel, where Yt represents the ln([concentration of intact species]) in mM, k represents the pseudo first-order reaction rate in hour-1, t represents the incubation time in hour, and Y0 presents the ln([initial concentration of intact species]) in mM.
(1 picture or pasted object on this page, not shown here)
Cold cleavage assays of [Ga(19)]+ were conducted in H2O and D2O to investigate the kinetic isotopic […]
Figure S264. Schematic description of preparation and direct complexation procedure of [natGa(19)]+.

cleavage after 6 h ([1]; natGa complex, pH 7.4, 80 °C): 50%
Substance: 68Gallium 2,2'-(7-(2-(((2R,3S)-1-((2-(((S)-1-amino-3-(1H-indol-3-yl)-1-oxopropan-2-yl)amino)-2-oxoethyl)amino)-3-hydroxy-1-oxobutan-2-yl)amino)-2-oxoethyl)-1,4,7-triazonane-1,4-diyl)diacetate [[Ga(14)]+]

cleavage after 6 h ([1]; natGa complex, pH 7.4, 80 °C): 20%
Substance: 68Gallium 2,2'-(7-(2-(((R)-1-((2-(((S)-1-amino-3-(1H-indol-3-yl)-1-oxopropan-2-yl)amino)-2-oxoethyl)amino)-1-oxopropan-2-yl)amino)-2-oxoethyl)-1,4,7-triazonane-1,4-diyl)diacetate [[Ga(12)]+]

cleaved after 1 h ([1]; natGa complex, pH 7.4, 80 °C, after 1 h): 100%
half-life of model tripeptide [2]: 6.12 h
half-life of model tripeptide [3]: 0.22 h
half-life of model tripeptide [4]: 3.65 h
Substance: 68Gallium 2,2'-(7-(2-(((R)-1-((2-(((S)-1-amino-3-(1H-indol-3-yl)-1-oxopropan-2-yl)amino)-2-oxoethyl)amino)-3-hydroxy-1-oxopropan-2-yl)(methyl)amino)-2-oxoethyl)-1,4,7-triazonane-1,4-diyl)diacetate [[Ga(16)]+]

half-life of model tripeptide [2]: 182 h
half-life of model tripeptide [3]: 5.20 h
half-life of model tripeptide [4]: 365 h
Substance: 68Gallium 2,2'-(7-(2-(((R)-1-((2-(((S)-1-amino-3-(1H-indol-3-yl)-1-oxopropan-2-yl)amino)-2-oxoethyl)amino)-3-hydroxy-1-oxopropan-2-yl)amino)-2-oxoethyl)-1,4,7-triazonane-1,4-diyl)diacetate [[Ga(13)]+]

half-life of model tripeptide [2]: 151 h
half-life of model tripeptide [3]: 0.92 h
half-life of model tripeptide [4]: 28.1 h
Substance: 68Gallium 2,2'-(7-(2-(((R)-1-((2-(((S)-1-amino-3-(1H-indol-3-yl)-1-oxopropan-2-yl)amino)-2-oxoethyl)amino)-4-(methylthio)-1-oxobutan-2-yl)(methyl)amino)-2-oxoethyl)-1,4,7-triazonane-1,4-diyl)diacetate [[Ga(18)]+]
krel (relative rate enhancement versus 25 mM pH 7.4 HEPES) ([1]; 25 mM HEPES, pH 7.4, 80 °C): 1
krel (relative rate enhancement versus 25 mM pH 7.4 HEPES) ([1]; 25 mM PBS, pH 7.4, 80 °C): 4.4
krel (relative rate enhancement versus 25 mM pH 7.4 HEPES) ([1]; 25 mM PIPES, pH 7.4, 80 °C): 1.13
krel (relative rate enhancement versus 25 mM pH 7.4 HEPES) ([1]; 250 mM HEPES, pH 7.4, 80 °C): 2.44
kobs ([1]; 25 mM HEPES, pH 7.4, 80 °C): 0.45 h⁻¹
kobs ([1]; 25 mM PBS, pH 7.4, 80 °C): 1.98 h⁻¹
kobs ([1]; 25 mM PIPES, pH 7.4, 80 °C): 0.51 h⁻¹
kobs ([1]; 250 mM HEPES, pH 7.4, 80 °C): 1.10 h⁻¹
pseudo first-order reaction rate in D2O ([5]; D2O): 0.16 h⁻¹
pseudo first-order reaction rate in H2O ([5]; H2O): 0.45 h⁻¹
KIE (kinetic isotopic effect) ([5]; H2O vs D2O): 2.81

hydrolysis of the Ga complex ([1]; pH 4.5, 80 °C): hydrolyzed
hydrolysis of the Ga complex ([1]; pH > 5, 80 °C): inert
half-life of model tripeptide [2]: not observed
half-life of model tripeptide [3]: not obser ved
autolytic release of [67Ga]Ga(NOTA) ([4]; 37 °C and pH 7.4): no significant autolytic release
autolytic release of [67Ga]Ga(NOTA) ([4]; 80 °C and pH 7.4): no significant autolytic release
half-life of model tripeptide [4]: not observed
Substance: 68Gallium (R)-2,2'-(7-(2-((2-((2-((1-amino-3-(1H-indol-3-yl)-1-oxopropan-2-yl)amino)-2-oxoethyl)amino)-2-oxoethyl)amino)-2-oxoethyl)-1,4,7-triazonane-1,4-diyl)diacetate [[Ga(10)]+]
